Results on nine molecules are retold here after patent publication US20110086759A1, “CHEMICAL COMPOUNDS” (SYNGENTA CROP PROTECTION, INC., priority 2007, published 2011).

Type in all cases: in vivo
For assay [1], the system named is Ipomea hederaceae (IPOHE). The assay is described as follows: Post-emergence biological efficacy, glasshouse pot test. The settings on record: Ipomoea hederacea, 312 h; post-emergence, 1,000 g/ha, evaluated after 13 days (100=total damage; 0=no damage); read-out: Percentage damage caused to weed species, IPOHE. In short, it runs like this:
(§1)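 Pot-grown weeds were sprayed 8 days after sowing with test compound in acetone/water (50:50) with 0.5% Tween 20 at 1000 or 250 g/ha. Glasshouse at 24/16° C day/night, 14 h light, 65% humidity. Damage scored 0-100 (100 = total damage) after 13 days.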

Assay [2] concerns Setaria faberi (SETFA). The description is as above. As to conditions: 312 h, post-emergence, 1,000 g/ha, evaluated after 13 days (100=total damage; 0=no damage), read-out: Percentage damage caused to weed species, SETFA. The procedure, abridged: as §1
The subject of assay [3] is Echinochloa crus-galli (ECHCG). The description is as above. As to conditions: 312 h, post-emergence, 1,000 g/ha, evaluated after 13 days (100=total damage; 0=no damage), read-out: Percentage damage caused to weed species, ECHCG. The procedure, abridged: as §1
Assay [4] relates to Alopecurus myosuroides (ALOMY). The assay is described as above. The settings on record: 312 h, post-emergence, 1,000 g/ha, evaluated after 13 days (100=total damage; 0=no damage), read-out: Percentage damage caused to weed species, ALOMY. In short, it runs like this:
as §1

Assay [5] has as its system Amaranthus retoflexus (AMARE). The assay is described as above. As to conditions: Amaranthus retroflexus, 312 h; post-emergence, 1,000 g/ha, evaluated after 13 days (100=total damage; 0=no damage); read-out: Percentage damage caused to weed species, AMARE. In short, it runs like this: as §1
Assay [6] concerns Solanum nigrum (SOLNI). Described as above. As to conditions: 312 h, post-emergence, 1,000 g/ha, evaluated after 13 days (100=total damage; 0=no damage), read-out: Percentage damage caused to weed species, SOLNI. The procedure, abridged: as §1
Assay [7] relates to Ipomea hederaceae (IPOHE). Briefly: Pre-emergence biological efficacy, glasshouse pot test. The settings on record: Ipomoea hederacea, 312 h; pre-emergence, 1,000 g/ha, evaluated after 13 days (100=total damage; 0=no damage); read-out: Percentage damage IPOHE. The procedure, abridged:
(§2)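 Visual phytotoxicity (0 no damage, 100 total damage) assessed 13 d after treatment. Soil-sown pots sprayed one day post-sowing; dose 1000 or 250 g/ha; formulation in acetone/water 50:50, 0.5% Tween 20.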

Assay [8] relates to Setaria faberi (SETFA). Described as above. The settings on record: 312 h, pre-emergence, 1,000 g/ha, evaluated after 13 days (100=total damage; 0=no damage), read-out: Percentage damage SETFA. The procedure, abridged: as §2
Assay [9] relates to Echinochloa crus-galli (ECHCG). The description is as above. As to conditions: 312 h, pre-emergence, 1,000 g/ha, evaluated after 13 days (100=total damage; 0=no damage), read-out: Percentage damage ECHCG. The procedure, abridged:
as §2

In assay [10] the test system is Alopecurus myosuroides (ALOMY). Described as above. The settings on record: 312 h, pre-emergence, 1,000 g/ha, evaluated after 13 days (100=total damage; 0=no damage), read-out: Percentage damage ALOMY. The procedure, abridged: as §2
For assay [11], the system named is Amaranthus retoflexus (AMARE). The description is as above. As to conditions: Amaranthus retroflexus, 312 h; pre-emergence, 1,000 g/ha, evaluated after 13 days (100=total damage; 0=no damage); read-out: Percentage damage AMARE. In short, it runs like this:
as §2

Assay [12] has as its system Solanum nigrum (SOLNI). The assay is described as above. As to conditions: 312 h, pre-emergence, 1,000 g/ha, evaluated after 13 days (100=total damage; 0=no damage), read-out: Percentage damage SOLNI. In short, it runs like this: as §2

Regarding `COC(=O)c1nc(C2CC2)nc(NCC2(OC)C=CC(OC)O2)c1Cl` (stereo not drawn) [Compound 4-55, 5-Chloro-2-cyclopropyl-4-[(2,5-dihydro-2,5-dimethoxy-furan-2-yl)methylamino]-6-methoxycarbonyl-pyrimidine], the pest or weed control at 1000 g/ha in assay [1] came to 50%; with Setaria faberi (SETFA) [2], 30%; in [3], 0%; in [4] it was 10%; in [5], 100%; in the assay with Solanum nigrum (SOLNI) [6], 80%. For the same molecule, the pest or weed control at 1000 g/ha in [7] stood at 60%; in the assay on Setaria faberi (SETFA) [8], 0%; in assay [9], 0%; in assay [10] it was 0%; in [11], 100%; in the assay with Solanum nigrum (SOLNI) [12], 10%.

With `COC(=O)c1nc(C2CC2)nc(NCC2CCC=CO2)c1Cl` (stereo not drawn) [Compound 4-56, 5-Chloro-2-cyclopropyl-4-[(3,4-dihydro-2H-pyran-2-yl)methylamino]-6-methoxy-carbonylpyrimidine], the pest or weed control at 1000 g/ha was 80% in assay [1]; 40% in the assay with Setaria faberi (SETFA) [2]; 30% in assay [3]; 20% in [4]; 100% in assay [5]; 80% with Solanum nigrum (SOLNI) [6]. Moreover, the pest or weed control at 1000 g/ha in assay [7] came out at 100%; in the assay with Setaria faberi (SETFA) [8], 20%; in assay [9], 30%; in assay [10], 40%; in assay [11], 100%; in the assay on Solanum nigrum (SOLNI) [12] it was 90%.

For `COC(=O)c1nc(C2CC2)nc(NCC2CCN(OC(=O)C(C)(C)C)CC2)c1Cl` [Compound 4-58], the pest or weed control at 1000 g/ha in assay [1] turned out to be 50%; with Setaria faberi (SETFA) [2], 50%; in assay [3], 40%; in [4] it was 0%; in [5], 70%; with Solanum nigrum (SOLNI) [6] it was 70%. The pest or weed control at 1000 g/ha in assay [7] turned out to be 20%; in the assay with Setaria faberi (SETFA) [8] it was 0%; in assay [9] it was 0%; in assay [10] it was 0%; in assay [11], 80%; in the assay on Solanum nigrum (SOLNI) [12], 30%.

For `COC(=O)c1nc(C2CC2)nc(NCC2(O)CCc3ccc(OC)cc32)c1Cl` (stereo not drawn) [Compound 4-59, 5-Chloro-2-cyclopropyl-4-[(1-hydroxy-6-methoxyindan-1-yl)methylamino]-6-methoxycarbonyl-pyrimidine], the pest or weed control at 1000 g/ha in [1] is 100%; in the assay with Setaria faberi (SETFA) [2], 80%; in [3] it was 60%; in [4], 50%; in [5], 100%; in the assay on Solanum nigrum (SOLNI) [6] it was 100%. Besides, the pest or weed control at 1000 g/ha in assay [7] worked out at 80%; in the assay with Setaria faberi (SETFA) [8], 10%; in [9] it was 40%; in assay [10] it was 20%; in assay [11], 80%; in the assay on Solanum nigrum (SOLNI) [12], 80%.

`COC(=O)c1nc(C2CC2)nc(NCc2ccccc2)c1Cl` [Compound 4-60, 5-chloro-2-cyclopropyl-6-methoxycarbonyl-4-phenylmethylaminopyrimidine]: the pest or weed control at 1000 g/ha in assay [1] turned out to be 100%; in the assay on Setaria faberi (SETFA) [2] it was 90%; in assay [3], 90%; in [4] it was 20%; in assay [5] it was 100%; with Solanum nigrum (SOLNI) [6], 100%. The pest or weed control at 1000 g/ha in assay [7] is 60%; in the assay with Setaria faberi (SETFA) [8], 30%; in assay [9], 0%; in assay [10], 0%; in assay [11], 60%; with Solanum nigrum (SOLNI) [12], 50%.

For the molecule `COC(=O)c1nc(C2CC2)nc(NCc2cccc(Cl)c2)c1Cl` [Compound 4-62], the pest or weed control at 1000 g/ha in assay [1] stood at 100%; in the assay on Setaria faberi (SETFA) [2], 90%; in [3], 70%; in [4], 30%; in assay [5], 100%; in the assay with Solanum nigrum (SOLNI) [6], 100%. The pest or weed control at 1000 g/ha in assay [7] was determined as 60%; with Setaria faberi (SETFA) [8], 10%; in assay [9] it was 20%; in assay [10] it was 10%; in [11], 100%; with Solanum nigrum (SOLNI) [12], 90%.

Take `COC(=O)c1nc(C2CC2)nc(NCc2ccc(Cl)cc2)c1Cl` [Compound 4-63, 5-Chloro-4-(4-chlorophenylmethyl-amino)-2-cyclopropyl-6-methoxycarbonyl-pyrimidine]: the pest or weed control at 1000 g/ha in assay [1] turned out to be 80%; with Setaria faberi (SETFA) [2] it was 80%; in assay [3] it was 50%; in [4], 40%; in [5], 100%; in the assay with Solanum nigrum (SOLNI) [6], 90%. Also, the pest or weed control at 1000 g/ha in assay [7] was 60%; in the assay with Setaria faberi (SETFA) [8], 20%; in assay [9] it was 20%; in assay [10], 20%; in [11], 60%; in the assay with Solanum nigrum (SOLNI) [12] it was 60%.

Take `COC(=O)c1nc(C2CC2)nc(NCc2cccc(F)c2)c1Cl` [Compound 4-65, 5-Chloro-2-cyclopropyl-4-(3-fluorophenylmethyl-amino)-6-methoxycarbonyl-pyrimidine]: the pest or weed control at 1000 g/ha in assay [1] came to 100%; with Setaria faberi (SETFA) [2], 100%; in assay [3], 80%; in [4] it was 20%; in assay [5], 100%; in the assay with Solanum nigrum (SOLNI) [6] it was 100%. For the same molecule, the pest or weed control at 1000 g/ha stood at 70% in assay [7]; 40% with Setaria faberi (SETFA) [8]; 60% in [9]; 20% in assay [10]; 80% in assay [11]; 80% in the assay with Solanum nigrum (SOLNI) [12].

Turning to `COC(=O)c1nc(C2CC2)nc(NCc2ccc(F)cc2)c1Cl` [Compound 4-66, 5-Chloro-2-cyclopropyl-4-(4-fluorophenyl-methylamino)-6-methoxy-carbonylpyrimidine], the pest or weed control at 1000 g/ha was 100% in assay [1]; 90% in the assay with Setaria faberi (SETFA) [2]; 70% in assay [3]; 20% in assay [4]; 100% in assay [5]; 100% in the assay with Solanum nigrum (SOLNI) [6]. Also, the pest or weed control at 1000 g/ha in assay [7] came out at 90%; with Setaria faberi (SETFA) [8], 80%; in assay [9], 50%; in [10] it was 40%; in [11], 90%; in the assay with Solanum nigrum (SOLNI) [12], 90%.
